Data as given in patent US20250092064A1, “BENZOTRIAZOLE COMPOUND” (DAIICHI SANKYO COMPANY, LIMITED, priority 2022, published 2025).

Legend:
[1] = target: binding between Nrf2 and Keap1 (Homo sapiens (Human), UniProt Q14145); assay: FP assay (in vitro): inhibition of Nrf2-Keap1 binding by fluorescence polarization; conditions: GST-fused human Keap1 (325-642) 20 nM, FITC-labeled Nrf2 peptide 10 nM, 2 hr at room temperature
[2] = system: NQO1 activity in Hepa1c1c7 cells; assay: NAD(P)H: quinone oxidoreductase-1 (NQO1) enzyme induction assay (in vitro); assay type: cell-based, mouse; conditions: Mus musculus, Hepa-1c1c7, NQO1 activity with 400 nM test compound as a ratio from the base without compound, about 48 hr
Protocol: The NQO1 assay was performed based on a previous report (Methods in Enzymology 2004; 382: 243-258). Hepa1c1c7 cells (mouse hepatocyte cell line, ATCC, cat. no. CRL-2026) were cultured in D-MEM medium containing 10% FBS and 1% penicillin/streptomycin (5% CO2, 37° C.), and seeded into 96-well plates (Corning REF. 353072) at 1×10^4 cells/well. A portion of the wells were prepared with medium only for background measurement without seeding cells. The next day, 400 nM of the test compound (0.004% of the final concentration in DMSO) dissolved in DMSO was added thereto, and the wells were incubated for about 48 hr. A well without adding the test compound was prepared for base activity assay in part. […] After the medium was removed, 50 μL of the cell lysate was added and incubated at 37° C. for 10 minutes, followed by shaking at room temperature for 10 minutes. 200 μL of reaction solution was added thereto, and allowed to stand for 5 minutes at room temperature. 50 μL of the stop solution was added thereto, and absorbance was measured at 610 nm on a SpectraMax PLUS384 (Molecular devices) or […] Pharma Biomedical). The test results were analyzed in Excel, and the NQO1 activity upon addition of 400 nM of test compound was calculated as a ratio from the base without the compound. NQO1 activity ratio when test compound is added=(absorbance when test compound is added-absorbance of medium only)/(absorbance without addition of compound-absorbance of medium only) [numerical formula 2] The results of each test compound in this test are shown in the following Table 2 (A:5<NQO1 activity ratio, B:3<NQO1 activity ratio≤5).

Sequence of binding between Nrf2 and Keap1 (Q14145 325-624 limits assumed): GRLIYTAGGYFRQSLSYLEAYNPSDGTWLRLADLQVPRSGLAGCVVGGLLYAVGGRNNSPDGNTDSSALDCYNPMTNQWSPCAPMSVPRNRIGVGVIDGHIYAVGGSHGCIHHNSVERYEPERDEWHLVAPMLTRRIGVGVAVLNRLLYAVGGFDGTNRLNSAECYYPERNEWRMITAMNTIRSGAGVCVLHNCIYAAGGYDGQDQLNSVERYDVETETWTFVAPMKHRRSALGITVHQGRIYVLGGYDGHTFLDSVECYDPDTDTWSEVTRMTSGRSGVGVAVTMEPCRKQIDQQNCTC

| Structure (SMILES) | IC50 [1] [nM] | fold induction at 0.4 µM [2] |
| --- | --- | --- |
| CC[C@@H]1CN(Cc2cc([C@@H](CC(=O)O)c3ccc4c(nnn4C)c3C)cc3ccsc23)C(C)c2nc(O)ccc2O1 (single isomer, unassigned) [Example 78, (3R)-3-(1,4-Dimethyl-1H-benzotriazol-5-yl)-3-(7-{[(2R,5S*)-2-ethyl-7-hydroxy-5-methyl-2,3-dihydropyrido[2,3-f][1,4]oxazepin-4(5H)-yl]methyl}-1-benzothiophen-5-yl)propanoic acid] | 10 to 30 | > 5 |
| CCOc1ccc2c(n1)O[C@H](CC)CN(Cc1cc([C@H](CC(=O)O)c3ccc4c(nnn4C)c3C)cc3ccsc13)S2(=O)=O [Example 111, (3S)-3-(1,4-Dimethyl-1H-benzotriazol-5-yl)-3-(7-{[(4R)-7-ethoxy-4-ethyl-1,1-dioxido-3,4-dihydro-2H-pyrido[2,3-b][1,4,5]oxathiazepin-2-yl]methyl}-1-benzothiophen-5-yl)propanoic acid] | ≤ 10 | 3 to 5 |
| CC[C@@H]1CN(Cc2cc(C(CC(=O)O)c3ccc4c(nnn4C)c3C)cc3c2CCC3)S(=O)(=O)c2c(Cl)cccc2O1 (stereo partly drawn) [Example 17, 3-(7-{[(4R)-9-Chloro-4-ethyl-1,1-dioxido-3,4-dihydro-2H-5,1,2-benzoxathiazepin-2-yl]methyl}-2,3-dihydro-1H-inden-5-yl)-3-(1,4-dimethyl-1H-benzotriazol-5-yl)propanoic acid] | ≤ 10 | 3 to 5 |
| CC[C@@H]1CN(Cc2cc([C@@H](CC(=O)O)c3ccc4c(nnn4C)c3C)cc3c2CCC3)S(=O)(=O)c2cc(Cl)c(F)cc2O1 [Example 20, (3R)-3-(7-{[(4R)-8-Chloro-4-ethyl-7-fluoro-1,1-dioxido-3,4-dihydro-2H-5,1,2-benzoxathiazepin-2-yl]methyl}-2,3-dihydro-1H-inden-5-yl)-3-(1,4-dimethyl-1H-benzotriazol-5-yl)propanoic acid] | 10 to 30 | > 5 |
| CC[C@@H]1CN(Cc2cc(C(CC(=O)O)c3ccc4c(nnn4C)c3C)cc3c2CCC3)S(=O)(=O)c2cccnc2O1 (stereo partly drawn) [Example 24, 3-(1,4-Dimethyl-1H-benzotriazol-5-yl)-3-(7-{[(4R)-4-ethyl-1,1-dioxido-3,4-dihydro-2H-pyrido[2,3-b][1,4,5]oxathiazepin-2-yl]methyl}-2,3-dihydro-1H-inden-5-yl)propanoic acid] | 10 to 30 | > 5 |
| CC[C@@H]1CN(Cc2cc([C@H](CC(=O)O)c3cc(C4CC4)c4c(nnn4C)c3C)cc3c2CCC3)S(=O)(=O)c2cc(Cl)cnc2O1 [Example 40, (3S)-3-(7-{[(4R)-8-Chloro-4-ethyl-1,1-dioxido-3,4-dihydro-2H-pyrido[2,3-b][1,4,5]oxathiazepin-2-yl]methyl}-2,3-dihydro-1H-inden-5-yl)-3-(7-cyclopropyl-1,4-dimethyl-1H-benzotriazol-5-yl)propanoic acid] | 10 to 30 | 3 to 5 |
| C[C@@H]1CN(Cc2cc(C(CC(=O)O)c3ccc4c(nnn4C)c3Cl)cc3c2CCC3)S(=O)(=O)c2ccccc2O1 (stereo partly drawn) [Example 95, 3-(4-Chloro-1-methyl-1H-benzotriazol-5-yl)-3-(7-{[(4R)-4-methyl-1,1-dioxido-3,4-dihydro-2H-5,1,2-benzoxathiazepin-2-yl]methyl}-2,3-dihydro-1H-inden-5-yl)propanoic acid] | ≤ 10 | > 5 |
| CC[C@@H]1CN(Cc2cc(C(CC(=O)O)c3cc(C#N)c4c(nnn4C)c3C)cc3ccsc23)S(=O)(=O)c2cc(Cl)cnc2O1 (stereo partly drawn) [Example 52, 3-(7-{[(4R)-8-Chloro-4-ethyl-1,1-dioxido-3,4-dihydro-2H-pyrido[2,3-b][1,4,5]oxathiazepin-2-yl]methyl}-1-benzothiophen-5-yl)-3-(7-cyano-1,4-dimethyl-1H-benzotriazol-5-yl)propanoic acid] | 10 to 30 | > 5 |
| CC[C@@H]1CN(Cc2cc([C@@H](CC(=O)O)c3ccc4c(nnn4C)c3C)cc3c2CCC3)[C@@H](C)c2ncccc2O1 [Example 65, (3R)-3-(1,4-Dimethyl-1H-benzotriazol-5-yl)-3-(7-{[(2R,5S)-2-ethyl-5-methyl-2,3-dihydropyrido[2,3-f][1,4]oxazepin-4(5H)-yl]methyl}-2,3-dihydro-1H-inden-5-yl)propanoic acid] | 10 to 30 | > 5 |
| CC[C@@H]1CN(Cc2cc([C@@H](CC(=O)O)c3cc(Cl)c4c(nnn4C)c3C)cc3ccsc23)[C@@H](C)c2ncccc2O1 [Example 70, (3R)-3-(7-Chloro-1,4-dimethyl-1H-benzotriazol-5-yl)-3-(7-{[(2R,5S)-2-ethyl-5-methyl-2,3-dihydropyrido[2,3-f][1,4]oxazepin-4(5H)-yl]methyl}-1-benzothiophen-5-yl)propanoic acid] | 30 to 100 | 3 to 5 |
| CC[C@@H]1CN(Cc2cc(C(CC(=O)O)c3cc(C4CC4)c4c(nnn4C)c3C)cc3[nH]ccc23)[C@@H](C)c2ncccc2O1 (stereo partly drawn) [Example 104, 3-(7-Cyclopropyl-1,4-dimethyl-1H-benzotriazol-5-yl)-3-(4-{[(2R,5S)-2-ethyl-5-methyl-2,3-dihydropyrido[2,3-f][1,4]oxazepin-4(5H)-yl]methyl}-1H-indol-6-yl)propanoic acid] | 10 to 30 | > 5 |
| CC[C@@H]1CN(Cc2cc(C(CC(=O)O)c3cc(OC)c4c(nnn4C)c3C)cc3ccsc23)S(=O)(=O)c2cc(Cl)cnc2O1 (stereo partly drawn) [Example 50, 3-(7-{[(4R)-8-Chloro-4-ethyl-1,1-dioxido-3,4-dihydro-2H-pyrido[2,3-b][1,4,5]oxathiazepin-2-yl]methyl}-1-benzothiophen-5-yl)-3-(7-methoxy-1,4-dimethyl-1H-benzotriazol-5-yl)propanoic acid] | 10 to 30 | > 5 |
| CC[C@@H]1Cc2ncccc2S(=O)(=O)N(Cc2cc([C@@H](CC(=O)O)c3ccc4c(nnn4C)c3C)cc3c2CCC3)C1 (single isomer, unassigned) [Example 27, (3R)-3-(1,4-Dimethyl-1H-benzotriazol-5-yl)-3-(7-{[(4S*)-4-ethyl-1,1-dioxido-4,5-dihydropyrido[2,3-f][1,2]thiazepin-2(3H)-yl]methyl}-2,3-dihydro-1H-inden-5-yl)propanoic acid] | ≤ 10 | > 5 |
| CC[C@@H]1CN(Cc2cc(C(CC(=O)O)c3ccc4c(nnn4C)c3C)cc3ccsc23)[C@@H](C)c2ncccc2O1 (stereo partly drawn) [Example 61, 3-(1,4-Dimethyl-1H-benzotriazol-5-yl)-3-(7-{[(2R,5S)-2-ethyl-5-methyl-2,3-dihydropyrido[2,3-f][1,4]oxazepin-4(5H)-yl]methyl}-1-benzothiophen-5-yl)propanoic acid] | 10 to 30 | > 5 |
| CCOc1ccc2c(n1)O[C@H](CC)CN(Cc1cc([C@@H](CC(=O)O)c3ccc4c(nnn4C)c3C)cc3ccsc13)S2(=O)=O [Example 112, (3R)-3-(1,4-Dimethyl-1H-benzotriazol-5-yl)-3-(7-{[(4R)-7-ethoxy-4-ethyl-1,1-dioxido-3,4-dihydro-2H-pyrido[2,3-b][1,4,5]oxathiazepin-2-yl]methyl}-1-benzothiophen-5-yl)propanoic acid] | ≤ 10 | 3 to 5 |
| Cc1c([C@H](CC(=O)O)c2cc3c(c(CN4CC5(CC5)Oc5ncc(Cl)cc5S4(=O)=O)c2)CCC3)ccc2c1nnn2C [Example 42, (3R)-3-{7-[(8′-Chloro-1′,1′-dioxido-spiro[cyclopropane-1,4′-pyrido[2,3-b][1,4,5]oxathiazepine]-2′(3′H)-yl)methyl]-2,3-dihydro-1H-inden-5-yl}-3-(1,4-dimethyl-1H-benzotriazol-5-yl)propanoic acid] | ≤ 10 | > 5 |
| C[C@@H]1CN(Cc2cc(C(CC(=O)O)c3ccc4c(nnn4C)c3F)cc3c2CCC3)S(=O)(=O)c2ccccc2O1 (stereo partly drawn) [Example 6, 3-(4-Fluoro-1-methyl-1H-benzotriazol-5-yl)-3-(7-{[(4R)-4-methyl-1,1-dioxido-3,4-dihydro-2H-5,1,2-benzoxathiazepin-2-yl]methyl}-2,3-dihydro-1H-inden-5-yl)propanoic acid] | ≤ 10 | > 5 |
| Cc1c(C(CC(=O)O)c2cc3c(c(CN4CC(C)(C)Oc5ncccc5S4(=O)=O)c2)CCC3)ccc2c1nnn2C (stereo not drawn) [Example 34, 3-(1,4-Dimethyl-1H-benzotriazol-5-yl)-3-{7-[(4,4-dimethyl-1,1-dioxido-3,4-dihydro-2H-pyrido[2,3-b][1,4,5]oxathiazepin-2-yl)methyl]-2,3-dihydro-1H-inden-5-yl}propanoic acid] | 10 to 30 | > 5 |
